Like-named read-outs stand apart in the source and are kept apart here.
Tests used:
[1] = target: T1, panel of 255 wild-type kinases (Homo sapiens, UniProt O15264); conditions: p38δ; 1 µmol/L single concentration; ref DOI: 10.1158/1535-7163.MCT-18-0877; cited from earlier work
T1 sequence (O15264 1-365): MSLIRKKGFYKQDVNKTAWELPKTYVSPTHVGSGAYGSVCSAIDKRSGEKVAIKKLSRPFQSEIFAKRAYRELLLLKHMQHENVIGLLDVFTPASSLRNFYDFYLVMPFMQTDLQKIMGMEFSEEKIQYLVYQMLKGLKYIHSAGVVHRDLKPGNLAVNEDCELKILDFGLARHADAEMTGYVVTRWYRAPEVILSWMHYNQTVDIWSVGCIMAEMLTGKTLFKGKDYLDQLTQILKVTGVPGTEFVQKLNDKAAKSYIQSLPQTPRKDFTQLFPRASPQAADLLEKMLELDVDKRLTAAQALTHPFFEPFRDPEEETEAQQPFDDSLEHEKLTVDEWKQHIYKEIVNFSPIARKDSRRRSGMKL

[2] = target: panel of 255 wild-type kinases (Homo sapiens, UniProt Q15119); conditions: kinase PDHK2; 1 µmol/L single concentration; ref DOI: 10.1158/1535-7163.MCT-18-0877; cited from earlier work
[3] = target: panel of 255 wild-type kinases (Homo sapiens, UniProt Q9P286); conditions: PAK5; 1 µmol/L single concentration; ref DOI: 10.1158/1535-7163.MCT-18-0877; cited from earlier work
[4] = target: panel of 255 wild-type kinases (Homo sapiens, UniProt Q9UBS0); conditions: p70S6Kβ; 1 µmol/L single concentration; ref DOI: 10.1158/1535-7163.MCT-18-0877; cited from earlier work
[5] = tested on: 134 cancer cell lines; test: Cell viability assay (ATPlite, 72 hours), IC50 on cancer cell line panel
[6] = Homo sapiens, A204, read-out: IC50 in cell proliferation assay
[7] = Homo sapiens, Kasumi 1, read-out: IC50 in cell proliferation assay
[8] = Homo sapiens, MDA-MB-453, read-out: IC50 in cell proliferation assay
[9] = Homo sapiens, MOLM-13, read-out: IC50 in cell proliferation assay
[10] = Homo sapiens, MV4-11, read-out: IC50 in cell proliferation assay
[11] = Homo sapiens, SK-N-SH, read-out: IC50 in cell proliferation assay

C=CC(=O)N1CCC[C@@H](n2nc(-c3ccc(Oc4ccccc4)cc3)c3c(N)ncnc32)C1 [ibrutinib]
%-inhibition, p38δ [1]: -3.68%
%-inhibition at 1 µmol/L, PDHK2 [2]: -1.08%
%-inhibition, PAK5 [3]: 12%
%-inhibition, p70S6Kβ [4]: 0.87%
IC50 ([5]; Homo sapiens, 769-P, read-out: IC50 in cell proliferation assay): 0.624 µM
IC50 ([5]; Homo sapiens, 786-0, read-out: IC50 in cell proliferation assay): 0.447 µM
IC50 [5, 6]: 29.2 µM
IC50 ([5]; Homo sapiens, A498, read-out: IC50 in cell proliferation assay): 10.1 µM
IC50 ([5]; Homo sapiens, A-427, read-out: IC50 in cell proliferation assay): 7.61 µM
IC50 ([5]; Homo sapiens, ACHN, read-out: IC50 in cell proliferation assay): 0.675 µM
IC50 ([5]; Homo sapiens, AN3-CA, read-out: IC50 in cell proliferation assay): 12.7 µM
IC50 ([5]; Homo sapiens, AU565, read-out: IC50 in cell proliferation assay): 0.042 µM
IC50 ([5]; Homo sapiens, BT-474, read-out: IC50 in cell proliferation assay): 0.028 µM
IC50 ([5]; Homo sapiens, BT-549, read-out: IC50 in cell proliferation assay): 17.5 µM
IC50 ([5]; Homo sapiens, BXPC-3, read-out: IC50 in cell proliferation assay): 1.41 µM
IC50 ([5]; Homo sapiens, C-33-A, read-out: IC50 in cell proliferation assay): 0.046 µM
IC50 ([5]; Homo sapiens, CAL-27, read-out: IC50 in cell proliferation assay): 0.374 µM
IC50 ([5]; Homo sapiens, CCRF-CEM, read-out: IC50 in cell proliferation assay): 8.44 µM
IC50 ([5]; Homo sapiens, DU-145, read-out: IC50 in cell proliferation assay): 0.148 µM
IC50 ([5]; Homo sapiens, DU-4475, read-out: IC50 in cell proliferation assay): 20.1 µM
IC50 ([5]; Homo sapiens, Daoy, read-out: IC50 in cell proliferation assay): 23.1 µM
IC50 ([5]; Homo sapiens, DoTc2-4510, read-out: IC50 in cell proliferation assay): 0.209 µM
IC50 ([5]; Homo sapiens, EOL1, read-out: IC50 in cell proliferation assay): 0.347 µM
IC50 ([5]; Homo sapiens, FaDu, read-out: IC50 in cell proliferation assay): 0.095 µM
IC50 ([5]; Homo sapiens, HCC827, read-out: IC50 in cell proliferation assay): 0.236 µM
IC50 ([5]; Homo sapiens, HCT-116, read-out: IC50 in cell proliferation assay): 26.4 µM
IC50 ([5]; Homo sapiens, HEC-1B, read-out: IC50 in cell proliferation assay): 0.294 µM
IC50 ([5]; Homo sapiens, HL-60, read-out: IC50 in cell proliferation assay): 29.7 µM
IC50 ([5]; Homo sapiens, HT, read-out: IC50 in cell proliferation assay): 0.902 µM
IC50 ([5]; Homo sapiens, Hs-578T, read-out: IC50 in cell proliferation assay): 15.1 µM
IC50 ([5]; Homo sapiens, HuTu80, read-out: IC50 in cell proliferation assay): 3.66 µM
IC50 ([5]; Homo sapiens, J82, read-out: IC50 in cell proliferation assay): 25.5 µM
IC50 ([5]; Homo sapiens, Jurkat E6.1, read-out: IC50 in cell proliferation assay): 10.8 µM
IC50 ([5]; Homo sapiens, K562, read-out: IC50 in cell proliferation assay): 7.32 µM
IC50 ([5]; Homo sapiens, KATO III, read-out: IC50 in cell proliferation assay): 1.04 µM
IC50 ([5]; Homo sapiens, KG-1, read-out: IC50 in cell proliferation assay): 1.35 µM
IC50 ([5]; Homo sapiens, KLE, read-out: IC50 in cell proliferation assay): 0.075 µM
IC50 ([5]; Homo sapiens, KMS-11, read-out: IC50 in cell proliferation assay): 27.9 µM
IC50 ([5]; Homo sapiens, KU812, read-out: IC50 in cell proliferation assay): 2.81 µM
IC50 [5, 7]: 7.92 µM
IC50 ([5]; Homo sapiens, LC-2-ad, read-out: IC50 in cell proliferation assay): 1.83 µM
IC50 ([5]; Homo sapiens, LS174T, read-out: IC50 in cell proliferation assay): 11.6 µM
IC50 ([5]; Homo sapiens, LS-411N, read-out: IC50 in cell proliferation assay): 23 µM
IC50 [5, 8]: 0.411 µM
IC50 ([5]; Homo sapiens, MDA-MB-468, read-out: IC50 in cell proliferation assay): 1.04 µM
IC50 [5, 9]: 0.426 µM
IC50 ([5]; Homo sapiens, MOLT-4, read-out: IC50 in cell proliferation assay): 1.88 µM
IC50 [5, 10]: 1.01 µM
IC50 ([5]; Homo sapiens, MeWo, read-out: IC50 in cell proliferation assay): 29.1 µM
IC50 ([5]; Homo sapiens, NCCIT, read-out: IC50 in cell proliferation assay): 5.1 µM
IC50 ([5]; Homo sapiens, NCI-H82, read-out: IC50 in cell proliferation assay): 18.4 µM
IC50 ([5]; Homo sapiens, NCI-H661, read-out: IC50 in cell proliferation assay): 0.123 µM
IC50 ([5]; Homo sapiens, NCI-H716, read-out: IC50 in cell proliferation assay): 1.3 µM
IC50 ([5]; Homo sapiens, NCI-H1650, read-out: IC50 in cell proliferation assay): 0.11 µM
IC50 ([5]; Homo sapiens, NCI-H1975, read-out: IC50 in cell proliferation assay): 0.576 µM
IC50 ([5]; Homo sapiens, NCI-H2228, read-out: IC50 in cell proliferation assay): 29.9 µM
IC50 ([5]; Homo sapiens, OVCAR-3, read-out: IC50 in cell proliferation assay): 0.2 µM
IC50 ([5]; Homo sapiens, PFSK-1, read-out: IC50 in cell proliferation assay): 25.6 µM
IC50 ([5]; Homo sapiens, RL95-2, read-out: IC50 in cell proliferation assay): 0.032 µM
IC50 ([5]; Homo sapiens, RPMI-7951, read-out: IC50 in cell proliferation assay): 26.9 µM
IC50 ([5]; Homo sapiens, Rec1, read-out: IC50 in cell proliferation assay): 0.000511 µM
IC50 ([5]; Homo sapiens, SK-BR-3, read-out: IC50 in cell proliferation assay): 0.011 µM
IC50 ([5]; Homo sapiens, SK-N-MC, read-out: IC50 in cell proliferation assay): 1.52 µM
IC50 [5, 11]: 26.3 µM
IC50 ([5]; Homo sapiens, SNU-5, read-out: IC50 in cell proliferation assay): 17.6 µM
IC50 ([5]; Homo sapiens, SNU-C2B, read-out: IC50 in cell proliferation assay): 0.3 µM
IC50 ([5]; Homo sapiens, SU-DHL-6, read-out: IC50 in cell proliferation assay): 0.012 µM
IC50 ([5]; Homo sapiens, SUP-T1, read-out: IC50 in cell proliferation assay): 1.31 µM
IC50 ([5]; Homo sapiens, SW48, read-out: IC50 in cell proliferation assay): 0.021 µM
IC50 ([5]; Homo sapiens, SW780, read-out: IC50 in cell proliferation assay): 18.7 µM
IC50 ([5]; Homo sapiens, T98G, read-out: IC50 in cell proliferation assay): 20.6 µM
IC50 ([5]; Homo sapiens, TCC-SUP, read-out: IC50 in cell proliferation assay): 18.1 µM
IC50 ([5]; Homo sapiens, U2OS, read-out: IC50 in cell proliferation assay): 10.1 µM
IC50 ([5]; Homo sapiens, U-118-MG, read-out: IC50 in cell proliferation assay): 23.3 µM
IC50 ([5]; L-82, read-out: IC50 in cell proliferation assay): 17.7 µM
IC50 ([5]; Rh30, read-out: IC50 in cell proliferation assay): 25.7 µM

CO[C@@H]1[C@H](N(C)C(=O)c2ccccc2)C[C@H]2O[C@]1(C)n1c3ccccc3c3c4c(c5c6ccccc6n2c5c31)C(=O)NC4 [midostaurin]
%-inhibition, p38δ [1]: 3.36%
%-inhibition at 1 µmol/L, PDHK2 [2]: -1.18%
%-inhibition, PAK5 [3]: 37%
%-inhibition, p70S6Kβ [4]: 69%
IC50 [5, 6]: 0.334 µM
IC50 [5, 7]: 0.32 µM
IC50 [5, 8]: 7.64 µM
IC50 [5, 9]: 0.014 µM
IC50 [5, 10]: 0.015 µM
IC50 [5, 11]: 0.326 µM

From publication PMC9516332 (Frontiers in Oncology, 2022)
